Laboratory results from the NIST ThermoML archive (doi:10.1021/je050183a).

Assays:
[1] = xn = mol fraction of the nth substance listed; conditions: 101 kPa, Liquid; for viscosity: Capillary tube (Ostwald / Ubbelohde) method; for speed of sound: Linear variable-path acoustic interferometer; for mass density: Pycnometric method
[2] = refractive index (Na D-line) (dimensionless); xn = mol fraction of the nth substance listed; conditions: 298.15 K, 101 kPa, Liquid, Standard Abbe refractometry

CC1OC(C)OC(C)O1 (stereo not drawn) [2,4,6-trimethyl-1,3,5-trioxane] + COC(=O)OC
[1]
Conditions | mass density, 288.15 K [kg/m3] | mass density, 298.15 K [kg/m3] | speed of sound, 288.15 K [m/s] | speed of sound, 298.15 K [m/s] | viscosity, 288.15 K [mPa·s] | viscosity, 298.15 K [mPa·s]
x1 = 0.0204 | 1074.19 | 1060.99 | 1242.2 | 1197.4 | 0.66 | 0.59
x1 = 0.0409 | 1071.96 | 1058.89 | 1242.3 | 1197.3 | 0.673 | 0.6
x1 = 0.059 | 1070.03 | 1057.07 | 1242.4 | 1197.3 | 0.684 | 0.609
x1 = 0.0845 | 1067.35 | 1054.53 | 1242.4 | 1197 | 0.699 | 0.62
x1 = 0.1091 | 1064.81 | 1052.11 | 1242.3 | 1196.8 | 0.713 | 0.63
x1 = 0.2258 | 1053.37 | 1041.01 | 1240.4 | 1194.6 | 0.77 | 0.673
x1 = 0.3012 | 1046.5 | 1034.2 | 1238.4 | 1192.7 | 0.803 | 0.697
x1 = 0.3994 | 1038.14 | 1025.83 | 1235 | 1189.6 | 0.844 | 0.727
x1 = 0.494 | 1030.68 | 1018.35 | 1231.2 | 1186 | 0.887 | 0.757
x1 = 0.5906 | 1023.62 | 1011.31 | 1227.2 | 1182.3 | 0.936 | 0.793
x1 = 0.696 | 1016.52 | 1004.26 | 1223.1 | 1178.5 | 1.002 | 0.84
x1 = 0.808 | 1009.63 | 997.47 | 1219.3 | 1175.3 | 1.091 | 0.906
x1 = 0.9289 | 1002.87 | 991.2 | 1216.7 | 1173.1 | 1.214 | 0.998
x1 = 1 | 999.69 | 988.35 | 1217.7 | 1174.5 | 1.374 | 1.107

[2]
Conditions | refractive index
x1 = 0.0204 | 1.3673
x1 = 0.0409 | 1.3686
x1 = 0.059 | 1.3696
x1 = 0.0845 | 1.3711
x1 = 0.1091 | 1.3725
x1 = 0.2258 | 1.3786
x1 = 0.3012 | 1.382
x1 = 0.3994 | 1.386
x1 = 0.494 | 1.3894
x1 = 0.5906 | 1.3925
x1 = 0.696 | 1.3956
x1 = 0.808 | 1.3985
x1 = 0.9289 | 1.4014
x1 = 1 | 1.4029
